{"source": "patent US8865626B2", "about": "“Synergistically active herbicidal agents that are compatible with cultivated plants and contain herbicides from the group of benzoylpyrazoles” (Bayer Cropscience AG, priority 2006, dated 2014)", "format_in_all_cases": "in vivo", "key": {"STEME": {"test_system": "STEME", "experiment": "Herbicidal post-emergence action against STEME", "conditions": "visual rating 3 to 4 weeks after treatment", "experimental": "(§1) Seeds of monocotyledonous and dicotyledonous weed and crop plants are placed into sandy loam in wood fiber pots or in plastic pots, covered with soil and cultivated in a greenhouse, including during the vegetation period outdoors outside of the greenhouse, under good growth conditions. 2-3 weeks after sowing, the test plants are treated at the one- to three-leaf stage. The test compounds, formulated as wettable powders (WP) or liquid (EC) are, in various dosages with a water application rate of 300 I/ha (converted), with added wetting agent (0.2 to 0.3%), sprayed onto the plants and the surface of the soil. 3 to 4 weeks after the treatment of the test plants, the effect of the preparations is rated visually in comparison to untreated controls (herbicidal effect in percent (%): 100% effect=plants have died, 0% effect=like control plants).\n(§2) If it is additionally to be tested as to whether safeners can improve the plant compatibility of test substances in the case of crop plants, the following options are used for applying the safener: • seeds of the crop plants are, before sowing, dressed with the safener substance (the amount of safener is stated in percent, based on the weight of the seed) • before the application of the test substances, the crop plants are sprayed with the safener at a certain application rate per hectare (usually 1 day before the application of the test substances) • the safener is applied together with the test substance as a tank mix (the amount of safener is stated in g/ha or as a ratio, based on the herbicide).\n(§3) By comparing the effect of the test substances on crop plants without or with safener treatment, it is possible to assess the effect of the safener substance."}, "LAMPU": {"test_system": "LAMPU", "experiment": "Herbicidal post-emergence action against LAMPU", "conditions": "visual rating 3 to 4 weeks after treatment", "experimental": "as §1, §3"}, "AVEFA": {"test_system": "AVEFA", "experiment": "Herbicidal post-emergence action against AVEFA", "conditions": "visual rating 3 to 4 weeks after treatment", "experimental": "as §1, §3"}, "MATIN": {"test_system": "MATIN", "experiment": "Herbicidal post-emergence action against MATIN", "conditions": "visual rating 3 to 4 weeks after treatment", "experimental": "as §1, §2, §3"}, "summer wheat": {"test_system": "summer wheat", "experiment": "Post-emergence damage to crop plant (safener test)", "experimental": "as §1, with “plants). […]” for “plants).”"}, "VERHE": {"test_system": "VERHE", "experiment": "Herbicidal post-emergence action against VERHE", "conditions": "visual rating 3 to 4 weeks after treatment", "experimental": "as §1, §3"}}}
{"smiles": "Nc1cc(Cl)nc(C(=O)O)c1Cl", "note": "[aminopyralid]", "values": [{"measurement": "Activity against STEME", "setting": "STEME; dosage 150 g of a.i./ha", "result": 65, "unit": "%"}]}
{"smiles": "CCOC(=O)C(Cl)Cc1cc(-n2nc(C)n(C(F)F)c2=O)c(F)cc1Cl", "note": "(centres unmarked) [carfentrazone-ethyl]", "values": [{"measurement": "Activity against LAMPU", "setting": "LAMPU; dosage 25 g of a.i./ha", "result": 10, "unit": "%"}]}
{"smiles": "COCc1cnc(C2=NC(C)(C(C)C)C(=O)N2)c(C(=O)O)c1.N", "note": "(centres unmarked) [imazamox-ammonium]", "values": [{"measurement": "Activity against AVEFA", "setting": "AVEFA; dosage 25 g of a.i./ha", "result": 60, "unit": "%"}]}
{"smiles": "CCOC(=O)C1=NN(c2ccc(Cl)cc2Cl)C(C)(C(=O)OCC)C1", "note": "(centres unmarked) [mefenpyr-diethyl]", "values": [{"measurement": "Activity against STEME", "setting": "STEME; dosage 9.4 g of a.i./ha", "result": 0, "unit": "%"}, {"measurement": "Activity against MATIN", "setting": "MATIN; dosage 9.4 g of a.i./ha", "result": 0, "unit": "%"}]}
{"smiles": "COC(=O)c1ccc(CNS(C)(=O)=O)cc1S(=O)(=O)NC(=O)Nc1nc(OC)cc(OC)n1", "note": "[mesosulfuron-methyl]", "values": [{"measurement": "Damage to summer wheat", "setting": "summer wheat; dosage 7.5 g of a.i./ha", "result": 15, "unit": "%"}, {"measurement": "Activity against MATIN", "setting": "MATIN; dosage 7.5 g of a.i./ha", "result": 50, "unit": "%"}]}
{"smiles": "Cc1nn(C)c(O)c1C(=O)c1ccc(C(F)(F)F)cc1S(C)(=O)=O", "note": "[pyrasulfotole]", "values": [{"measurement": "Activity against VERHE", "setting": "VERHE; dosage 12.5 g of a.i./ha", "result": 40, "unit": "%"}, {"measurement": "Damage to summer wheat", "setting": "summer wheat; dosage 12.5 g of a.i./ha", "result": 20, "unit": "%"}, {"measurement": "Activity against LAMPU", "setting": "LAMPU; dosage 12.5 g of a.i./ha", "result": 80, "unit": "%"}, {"measurement": "Activity against AVEFA", "setting": "AVEFA; dosage 12.5 g of a.i./ha", "result": 40, "unit": "%"}, {"measurement": "Activity against STEME", "setting": "STEME; dosage 12.5 g of a.i./ha", "result": 60, "unit": "%"}, {"measurement": "Activity against MATIN", "setting": "MATIN; dosage 12.5 g of a.i./ha", "result": 70, "unit": "%"}]}
{"smiles": "COc1cc(OC)n2nc(NS(=O)(=O)c3c(C(F)(F)F)ccnc3OC)nc2n1", "note": "[pyroxsulam]", "values": [{"measurement": "Activity against VERHE", "setting": "VERHE; dosage 5 g of a.i./ha", "result": 80, "unit": "%"}]}
